Measurements reported in patent US5654427A, “Indolocarbazole derivatives to treat a pathological condition of the prostate” (Kyowa Hakko Kogyo Co., Ltd., priority 1995, dated 1997).

Tests used:
[1] = tested on: androgen independent human prostate cancer cell lines Tsu-Pr1, DuPro-1, PC-3 and DU-145; experiment: growth inhibition of prostate cancer-derived cell lines, overall (calcein fluorescence); type: cell-based; conditions: Table 3
Method: (§1) Throughout the experiment the Tsu-Pr1 and Du-Pro1 cells were maintained in RPMI 1640 medium (GIBCO) containing 10% fetal bovine serum (Hyclone), 2 mM glutamine, 100 U/ml penicillin, and 100 μg/ml streptomycin. The PC-3 cells were maintained in Ham's F12K medium (Irvine Scientific) containing 10% fetal bovine serum (Hyclone), 2 mM glutamine, 100 U/ml penicillin, and 100 μg/ml streptomycin. All cell lines were maintained at 37° C. in a humidified atmosphere containing 5% CO2. The DU-145 cells were maintained in minimal essential medium (Gibco), containing 10% fetal bovine serum (Hyclone), 2 mM glutamine, and no antibiotics.
(§2) Tests for growth inhibition by the candidate compounds were conducted by the following procedure. In each well of a 96-well plate (Falcon) were placed 2,500 cells in 0.1 ml of medium. The cultures were incubated overnight after which a 0.1 ml aliquot of culture medium was added to each well. […] Other control wells received medium without any K-252a derivative compounds. Incubation was continued for three days. On day three the number of cells in each well was measured using a calcein fluorescence assay (Bozyczko-Coyne et al. J. Neurosci. Meth. 50, 205-216 (1993)).
(§3) Calcein AM (Molecular Probes, Eugene, Oreg.), an analog of the viable dye fluorescein diacetate, is taken up by cells and cleaved intracellularly to fluorescent salts that are retained by intact membranes of viable cells. This method thus provides a reliable and quantitative measurement of cell survival. Calcein AM was diluted 2× in Dulbeccos phosphate buffered saline (D-PBS) to 2× the final assay concentration (6 μM) and 100 μl was added to culture wells containing 100 μl of medium. The plates were then incubated for 1 hour at 37° C. Cells were then washed 4 times with D-PBS to remove excess calcein not taken up by cells. The plate was read using a Millipore plate reading fluorimeter (Cytofluor 2350) at emission=485 nm and excitation=538 nm. After subtraction of blank values (wells containing medium but no cells), relative fluorescent values reflect a quantitative measurement of cell survival. […]

[2] = tested on: Dunning R-3327 AT-2.1 prostate tumor; experiment: inhibition of growth of Dunning R-3327 AT-2.1 prostate tumor in adult male Copenhagen rats; type: in vivo, rat; conditions: 10 mg/kg/day s.c.
From the text: The AT-2 tumor is a highly anaplastic cell line derived from the original slow-growing androgen-dependent Dunning R-3327 H rat prostate tumor (Issacs et al., Prostate 9:261-281, 1986). The AT-2 tumor model has been used to characterize other potential anti-prostatic cancer agents including linomide (Ichikawa et al., Cancer Research 52:3022-3028, 1992) and suramin (Morton et al., Prostate 17:327-336, 1990) which is undergoing evaluation in clinical trials for androgen-independentprostate cancer (Eisenberger et al., J. Natl. Can. Inst. 85: 611-621, 1993).
Experimental Protocol: Twenty-four inbred male Copenhagen rats were inoculated subcutaneously in the flank with 1×10^6 viable AT-2.1 tumor cells. All animals were allowed to develop tumors of approximately 2.7 cm^3 in size (approximately 14 days) before being randomized into three groups of 8 animals each. Group 1 received daily subcutaneous injections of vehicle alone (1 ml/kg body weight). […] All animals had their tumor sizes evaluated for a period of 16 days. Tumor volume was calculated using the formula (1×w^2)×0.5.

trkA = target: T1, trkA (Rattus norvegicus, UniProt P35739); experiment: inhibition of NGF-stimulated trk autophosphorylation (tyrosine phosphorylation) in PC12 cells, anti-phosphotyrosine Western blot; type: cell-based; conditions: 100 nM compound, NGF 50 ng/ml; further: key: +: Inhibited phosphorylation; -: Did not inhibit phosphorylation
T1 construct: are rat pheochromocytoma cells that bear trkA; host or cells: PC12 rat pheochromocytoma cells

PC-3 = experiment: growth inhibition of PC-3 prostate cancer cells (calcein fluorescence); type: cell-based; conditions: Homo sapiens, PC-3, 72 h; 3 days incubation; read-out: PC-3 IC50
Method: as §1, §2, §3

[3] = body weight and weight of peripheral organs in sexually immature mice; conditions: for Body Weight: Table 6, TEPBS 32.0 ± 0.6; for Heart weight / Testes weight / Stomach weight / Lung weight / Kidney weight / Liver weight: Table 7; for Heart weight: TEPBS 170 ± 10; for Testes weight: TEPBS 206 ± 8; for Stomach weight: TEPBS 272 ± 14; for Lung weight: TEPBS 280 ± 15; for Kidney weight: TEPBS 589 ± 34; for Liver weight: TEPBS 2004 ± 69
From the text: The following animal model can be used to test the efficacy of a functional derivative for treatment of a proliferative prostate condition. Sexually immature male mice of 15-20 g each (Charles River Laboratories, Raleigh, N.C.) were used in the following in vivo study. The mice were allowed at least 3 days after purchase to acclimate before being used in any experiments.
Each test group contained 12 mice. […] At the end of the 21 day dosing period the mice were sacrificed and whole body blood, dorsal prostate, ventral prostate, coagulating glands, seminal vesicles, heart, liver, stomach, lung, kidneys and testes were collected separately and weighed.

Tsu-Pr1 = experiment: growth inhibition of Tsu-Pr1 prostate cancer cells (calcein fluorescence); type: cell-based; conditions: Homo sapiens, TSU-Pr1, 72 h; 3 days incubation; read-out: Tsu-Pr1 IC50
Method: as §1, §2
(§4) Calcein AM (Molecular Probes, Eugene, Oreg.), an analog of the viable dye fluorescein diacetate, is taken up by cells and cleaved intracellularly to fluorescent salts that are retained by intact membranes of viable cells. This method thus provides a reliable and quantitative measurement of cell survival. Calcein AM was diluted 2× in Dulbeccos phosphate buffered saline (D-PBS) to 2× the final assay concentration (6 μM) and 100 μl was added to culture wells containing 100 μl of medium. The plates were then incubated for 1 hour at 37° C. Cells were then washed 4 times with D-PBS to remove excess calcein not taken up by cells. The plate was read using a Millipore plate reading fluorimeter (Cytofluor 2350) at emission=485 nm and excitation=538 nm. After subtraction of blank values (wells containing medium but no cells), relative fluorescent values reflect a quantitative measurement of cell survival.
(§5) The number of cells in the wells containing functional derivatives was compared to the number of cells in the control wells. The concentration which inhibited cell growth by 50% was calculated and is referred to as the "IC50 ".

Du-Pro1 = experiment: growth inhibition of Du-Pro1 prostate cancer cells (calcein fluorescence); type: cell-based; conditions: Homo sapiens, 72 h; 3 days incubation; read-out: Du-Pro1 IC50
Method: as §1, §2, §4, §5

T1 sequence (P35739 33-799): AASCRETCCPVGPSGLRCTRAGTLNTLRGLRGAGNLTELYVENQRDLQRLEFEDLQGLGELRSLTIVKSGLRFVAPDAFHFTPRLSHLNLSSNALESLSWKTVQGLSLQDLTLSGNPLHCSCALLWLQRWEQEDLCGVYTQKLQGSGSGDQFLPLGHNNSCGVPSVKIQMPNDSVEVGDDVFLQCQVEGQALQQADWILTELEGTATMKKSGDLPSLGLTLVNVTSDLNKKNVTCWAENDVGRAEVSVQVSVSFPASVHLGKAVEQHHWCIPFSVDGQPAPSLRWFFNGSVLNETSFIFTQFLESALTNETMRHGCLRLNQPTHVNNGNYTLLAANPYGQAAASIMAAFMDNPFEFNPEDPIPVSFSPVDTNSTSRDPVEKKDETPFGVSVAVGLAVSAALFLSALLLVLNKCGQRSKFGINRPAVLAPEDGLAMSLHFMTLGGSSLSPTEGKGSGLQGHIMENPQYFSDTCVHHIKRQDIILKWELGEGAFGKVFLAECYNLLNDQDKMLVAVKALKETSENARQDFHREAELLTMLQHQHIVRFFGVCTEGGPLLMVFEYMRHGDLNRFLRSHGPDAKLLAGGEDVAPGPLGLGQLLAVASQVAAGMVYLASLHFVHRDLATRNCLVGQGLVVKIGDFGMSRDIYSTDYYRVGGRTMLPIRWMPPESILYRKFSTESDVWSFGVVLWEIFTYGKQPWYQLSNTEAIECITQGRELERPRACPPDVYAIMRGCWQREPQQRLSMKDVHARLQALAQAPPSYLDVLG

COC1(CO)CC2OC1(C)n1c3ccccc3c3c4c(c5c6ccccc6n2c5c31)C(=O)NC4 (stereo not shown) [Compound I-19]
potency in inhibiting prostate cell line growth, in words [1]: most potent compounds in inhibiting growth in all four cell lines
inhibiting growth of AT-2.1 tumors ([2]; approximately): 50-60%
Tumor volume Day 0 ([2]; vehicle 2.73 ± 0.50): 2.62 ± 0.53 cm^3
Tumor volume Day 3 ([2]; vehicle 6.66 ± 1.48): 5.52 ± 1.10 cm^3
Tumor volume Day 8 ([2]; vehicle 21.0 ± 3.0): 11.3 ± 1.8 cm^3
Tumor volume Day 13 ([2]; vehicle 37.3 ± 4.0): 22.4 ± 2.7 cm^3
Tumor volume Day 16 ([2]; vehicle 58.7 ± 5.0): 28.4 ± 5.1 cm^3
trk 100 nM (inhibition of phosphorylation) (trkA): +
IC50 (PC-3): 5 µM
Body Weight ([3]; 1 mg/kg): 31.9 ± 0.8 g
Body Weight ([3]; 10 mg/kg): 31.2 ± 0.5 g
Heart weight ([3]; 1 mg/kg): 160 ± 20 mg
Testes weight ([3]; 1 mg/kg): 205 ± 7 mg
Stomach weight ([3]; 1 mg/kg): 252 ± 12 mg
Lung weight ([3]; 1 mg/kg): 323 ± 16 mg
Kidney weight ([3]; 1 mg/kg): 467 ± 18 mg
Liver weight ([3]; 1 mg/kg): 1968 ± 58 mg
Heart weight ([3]; 10 mg/kg): 166 ± 8 mg
Testes weight ([3]; 10 mg/kg): 208 ± 8 mg
Stomach weight ([3]; 10 mg/kg): 242 ± 11 mg
Lung weight ([3]; 10 mg/kg): 276 ± 18 mg
Kidney weight ([3]; 10 mg/kg): 563 ± 17 mg
Liver weight ([3]; 10 mg/kg): 1933 ± 70 mg
IC50 (Tsu-Pr1): 0.07 µM
IC50 (Du-Pro1): 0.27 µM
